Experiments:
[1] = tested on: Subjects With Active Crohn's Disease With Evidence of Mucosal Ulceration; assay: Study 3 - SES-CD endoscopic scores; format: in vivo, human; conditions: 200 mg, LOCF; for Deep remission (CDAI score < 150 points, SES-CD score ≤ 4, ulcerated subscore ≤ 1 in all 5 segments) / Endoscopic remission (SES-CD % improvement ≤ 4, ulcerated subscore ≤ 1 in all 5 segments) / Endoscopic response (SES-CD % improvement ≥ 50) / Mucosal healing (SES-CD % = 0): 10 weeks
Excerpt: Double-Blind, Randomized, Placebo-Controlled, Multi-Centre Study to Investigate the Efficacy and Safety of Compound 1 in Subjects With Active Crohn's Disease With Evidence of Mucosal Ulceration. This is a double-blind, randomized, placebo-controlled, multi-centre Phase 2 study to investigate the efficacy and safety of Compound 1 administered once daily for the treatment of active CD with evidence of mucosal ulceration. The pharmacokinetics (including a PK substudy) and pharmacodynamics of Compound 1 and metabolite in CD will also be characterised. A total of 180 eligible subjects will be randomized to receive Compound 1 or placebo in addition to their stable background treatment (eg, corticosteroids, aminosalicylates, or CD-related antibiotics). The study will consist of 2 parts, with total treatment duration of 20 weeks. Randomization in Part 1 will be stratified according the subject's previous anti-TNF exposure/response, CRP level at Screening, and oral corticosteroid use at visit Day −1. After the first 10 weeks of treatment in Part 1, patients will be re-randomized for Part 2 as shown in the diagram below and will be stratified according to the subject's clinical response, previous anti-TNF exposure/response, and oral corticosteroid use at visit Day -1. [table] For the evaluation of disease severity the Crohn's Disease Index of Severity (CDEIS), and the Simple Endoscopic Score for Crohn's Disease (SES-CD) may be used. These are validated scores for the measurement of endoscopic findings, (Sipponen et al, 2010). For the SES-CD, four endoscopic variables in the five segments are scored from 0-3: Variable “presence and size of ulcers” is scored 0 when no ulcers are present, small ulcers (diameter 0.1-0.5 cm) are scored 1, medium-sized ulcers (diameter 0.5-2 cm) 2, and large ulcers (>2 cm) 3. Variable “extent of ulcerated surface” is scored 0 when no ulcers were present, 1 when extent was <10%, 2 when extent is 10%-30%, and 3 when it is >30%. The variable extent of affected surface is scored 0 if none, 1 when <50%, 2 when 50%-75%, and 3 when >75%. The presence and type of narrowings is scored 0 when no narrowings are present, a single passable narrowing is scored 1, multiple passable narrowings are scored 2, and a nonpassable narrowing is scored 3.

[2] = tested on: Subjects With Active Crohn's Disease With Evidence of Mucosal Ulceration; assay: Study 3 - CDAI component PRO2 score; format: in vivo, human; conditions: 200 mg
Excerpt: Double-Blind, Randomized, Placebo-Controlled, Multi-Centre Study to Investigate the Efficacy and Safety of Compound 1 in Subjects With Active Crohn's Disease With Evidence of Mucosal Ulceration. This is a double-blind, randomized, placebo-controlled, multi-centre Phase 2 study to investigate the efficacy and safety of Compound 1 administered once daily for the treatment of active CD with evidence of mucosal ulceration. The pharmacokinetics (including a PK substudy) and pharmacodynamics of Compound 1 and metabolite in CD will also be characterised. A total of 180 eligible subjects will be randomized to receive Compound 1 or placebo in addition to their stable background treatment (eg, corticosteroids, aminosalicylates, or CD-related antibiotics). The study will consist of 2 parts, with total treatment duration of 20 weeks. Randomization in Part 1 will be stratified according the subject's previous anti-TNF exposure/response, CRP level at Screening, and oral corticosteroid use at visit Day −1. After the first 10 weeks of treatment in Part 1, patients will be re-randomized for Part 2 as shown in the diagram below and will be stratified according to the subject's clinical response, previous anti-TNF exposure/response, and oral corticosteroid use at visit Day -1. [table] Within the CDAI score measurement parameters, the PRO2 score, based on the stool frequency (SF) and abdominal pain (AP) components of the CDAI, was also measured. The PRO2 score is calculated as follows: PRO2=7 x (mean daily number of liquid or very soft stools)+7×(mean daily abdominal pain score). This score provides a measurement of the symptoms improvement of the patient.

[3] = Anti-TNF experienced non-responders
[4] = baseline corticosteroid use: with steroids
[5] = baseline corticosteroid use: without steroids

With `O=C(Nc1nc2cccc(-c3ccc(CN4CCS(=O)(=O)CC4)cc3)n2n1)C1CC1` [Compound 1, cyclopropanecarboxylic acid {5-[4-(1,1-dioxo-thiomorpholin-4-ylmethyl)-phenyl]-[1,2,4]triazolo[1,5-a]pyridin-2-yl}-amide] the “Deep remission (CDAI score < 150 points, SES-CD score ≤ 4, ulcerated subscore ≤ 1 in all 5 segments)” value (from here on “Deep remission”) ([1]; Anti-TNF Naïve) was 0%, the “Endoscopic remission (SES-CD % improvement ≤ 4, ulcerated subscore ≤ 1 in all 5 segments)” value ([1]; Anti-TNF Naïve) was 16% and the “Endoscopic response (SES-CD % improvement ≥ 50)” value ([1]; Anti-TNF Naïve) was 28%. For the same molecule, the “Mucosal healing (SES-CD % = 0)” value ([1]; Anti-TNF Naïve) was 0%, the “Deep remission” value [1, 3] was 6% and the “Endoscopic remission (SES-CD % improvement ≤ 4, ulcerated subscore ≤ 1 in all 5 segments)” value [1, 3] was 12%. For the same molecule, the “Endoscopic response (SES-CD % improvement ≥ 50)” value [1, 3] was 23%, the “Mucosal healing (SES-CD % = 0)” value [1, 3] was 1% and the “Deep remission” value [1, 4] was 0%. For the same molecule, the “Endoscopic remission (SES-CD % improvement ≤ 4, ulcerated subscore ≤ 1 in all 5 segments)” value [1, 4] was 12%, the “Endoscopic response (SES-CD % improvement ≥ 50)” value [1, 4] was 22% and the “Mucosal healing (SES-CD % = 0)” value [1, 4] was 0%. For the same molecule, the “Deep remission” value [1, 5] was 5%, the “Endoscopic remission (SES-CD % improvement ≤ 4, ulcerated subscore ≤ 1 in all 5 segments)” value [1, 5] was 15% and the “Endoscopic response (SES-CD % improvement ≥ 50)” value [1, 5] was 28%. The “Mucosal healing (SES-CD % = 0)” value [1, 5] was 5%, the “Deep remission” value ([1]; overall) was 8% and the “Endoscopic remission (SES-CD % improvement ≤ 4, ulcerated subscore ≤ 1 in all 5 segments)” value ([1]; overall) was 14%. The “Endoscopic response (SES-CD % improvement ≥ 50)” value ([1]; overall) was 25%, the “Mucosal healing (SES-CD % = 0)” value ([1]; overall) was 2% and the “Deep remission” value ([1]; screening CRP ≤ 10 ml/L) was 10%. The “Endoscopic remission (SES-CD % improvement ≤ 4, ulcerated subscore ≤ 1 in all 5 segments)” value ([1]; screening CRP ≤ 10 ml/L) was 16%, the “Endoscopic response (SES-CD % improvement ≥ 50)” value ([1]; screening CRP ≤ 10 ml/L) was 23% and the “Mucosal healing (SES-CD % = 0)” value ([1]; screening CRP ≤ 10 ml/L) was 3%. The “Deep remission” value ([1]; screening CRP ≥ 10 mg/L) was 0%, the “Endoscopic remission (SES-CD % improvement ≤ 4, ulcerated subscore ≤ 1 in all 5 segments)” value ([1]; screening CRP ≥ 10 mg/L) was 0% and the “Endoscopic response (SES-CD % improvement ≥ 50)” value ([1]; screening CRP ≥ 10 mg/L) was 28%. For the same molecule, the “Mucosal healing (SES-CD % = 0)” value ([1]; screening CRP ≥ 10 mg/L) was 0%, the “SES-CD mean, baseline” value ([1]; Baseline) was 14.2 and the “SES-CD mean CFB, W 10” value ([1]; week 10) was −2.6. For the same molecule, the “SES-CD mean, W 10” value ([1]; week 10) was 11.6, the “PRO2 mean, baseline” value ([2]; Baseline, LOCF) was 52.4 and the “PRO2 mean CFB, W 10” value ([2]; week 10, LOCF) was −21.9. The “PRO2 remission (PRO2 ≤ 28)” value ([2]; week 10, LOCF) was 55%, the “PRO2 response (mean daily number of liquid or very soft stools ≤ 3, mean daily abdominal pain ≤ 1)” value ([2]; week 10, LOCF) was 38% and the “PRO2 remission (PRO2 ≤ 28)” value ([2]; week 10, NRI) was 50%. The “PRO2 response (mean daily number of liquid or very soft stools ≤ 3, mean daily abdominal pain ≤ 1)” value ([2]; week 10, NRI) was 34%.

Reference: patent US20180200257A1, “METHODS FOR THE TREATMENT OF INFLAMMATORY DISORDERS” (Galapagos NV, priority 2015, published 2018)
